In the NIST ThermoML archive (doi:10.1021/je2010038):

Assay: xn = mol fraction of the nth substance listed
Conditions: for mass density: 101 kPa, Liquid, Vibrating tube method; for surface tension liquid-gas: Pendant drop shape

NCCO [2-aminoethan-1-ol] + O
Conditions | mass density [kg/m3] | surface tension liquid-gas [mN/m]
298.15 K, x1 = 0.1122 | 1010.9 | –
298.15 K, x1 = 0.1643 | 1016.3 | –
298.15 K, x1 = 0.2278 | 1021.3 | –
298.15 K, x1 = 0.3067 | 1024.8 | –
298.15 K, x1 = 0.4077 | 1026.3 | –
298.15 K, x1 = 0.5412 | 1024.7 | –
298.15 K, x1 = 0.7264 | 1020 | –
298.15 K, x1 = 1 | 1011.9 | –
303.15 K, x1 = 0.032 | – | 66.75
303.15 K, x1 = 0.069 | – | 64.74
303.15 K, x1 = 0.112 | – | 63.58
303.15 K, x1 = 0.1122 | 1008.4 | –
303.15 K, x1 = 0.164 | – | 61.74
303.15 K, x1 = 0.1643 | 1013.8 | –
303.15 K, x1 = 0.2278 | 1018.2 | –
303.15 K, x1 = 0.228 | – | 59.27
303.15 K, x1 = 0.3067 | 1021.4 | –
303.15 K, x1 = 0.307 | – | 57.42
303.15 K, x1 = 0.407 | – | 55.78
303.15 K, x1 = 0.4077 | 1022.8 | –
303.15 K, x1 = 0.541 | – | 53.43
303.15 K, x1 = 0.5412 | 1021 | –
303.15 K, x1 = 0.726 | – | 50.59
303.15 K, x1 = 0.7264 | 1016.2 | –
303.15 K, x1 = 1 | 1008 | 48.13
308.15 K, x1 = 0.1122 | 1006.2 | –
308.15 K, x1 = 0.1643 | 1011 | –
308.15 K, x1 = 0.2278 | 1015.2 | –
308.15 K, x1 = 0.3067 | 1018.2 | –
308.15 K, x1 = 0.4077 | 1019.3 | –
308.15 K, x1 = 0.5412 | 1017.3 | –
308.15 K, x1 = 0.7264 | 1012.3 | –
308.15 K, x1 = 1 | 1004 | –
313.15 K, x1 = 0.032 | – | 65.51
313.15 K, x1 = 0.069 | – | 63.29
313.15 K, x1 = 0.112 | – | 62.55
313.15 K, x1 = 0.1122 | 1003.5 | –
313.15 K, x1 = 0.164 | – | 60.27
313.15 K, x1 = 0.1643 | 1008.3 | –
313.15 K, x1 = 0.2278 | 1012.1 | –
313.15 K, x1 = 0.228 | – | 58.19
313.15 K, x1 = 0.3067 | 1014.7 | –
313.15 K, x1 = 0.307 | – | 56.35
313.15 K, x1 = 0.407 | – | 54.82
313.15 K, x1 = 0.4077 | 1015.7 | –
313.15 K, x1 = 0.541 | – | 52.41
313.15 K, x1 = 0.5412 | 1013.5 | –
313.15 K, x1 = 0.726 | – | 49.63
313.15 K, x1 = 0.7264 | 1008.5 | –
313.15 K, x1 = 1 | 1000 | 46.66
318.15 K, x1 = 0.1122 | 1001.1 | –
318.15 K, x1 = 0.1643 | 1005.3 | –
318.15 K, x1 = 0.2278 | 1009 | –
318.15 K, x1 = 0.3067 | 1011.4 | –
318.15 K, x1 = 0.4077 | 1012 | –
318.15 K, x1 = 0.5412 | 1009.7 | –
318.15 K, x1 = 0.7264 | 1004.5 | –
318.15 K, x1 = 1 | 996 | –
323.15 K, x1 = 0.032 | – | 64.31
323.15 K, x1 = 0.069 | – | 61.72
323.15 K, x1 = 0.112 | – | 61.16
323.15 K, x1 = 0.1122 | 998.1 | –
323.15 K, x1 = 0.164 | – | 58.82
323.15 K, x1 = 0.1643 | 1002.3 | –
323.15 K, x1 = 0.2278 | 1005.6 | –
323.15 K, x1 = 0.228 | – | 56.85
323.15 K, x1 = 0.3067 | 1007.8 | –
323.15 K, x1 = 0.307 | – | 55.15
323.15 K, x1 = 0.407 | – | 53.4
323.15 K, x1 = 0.4077 | 1008.3 | –
323.15 K, x1 = 0.541 | – | 51.14
323.15 K, x1 = 0.5412 | 1005.9 | –
323.15 K, x1 = 0.726 | – | 48.42
323.15 K, x1 = 0.7264 | 1000.6 | –
323.15 K, x1 = 1 | 992 | 45.58
328.15 K, x1 = 0.1122 | 995.5 | –
328.15 K, x1 = 0.1643 | 999.2 | –
328.15 K, x1 = 0.2278 | 1002.4 | –
328.15 K, x1 = 0.3067 | 1004.4 | –
328.15 K, x1 = 0.4077 | 1004.6 | –
328.15 K, x1 = 0.5412 | 1002 | –
328.15 K, x1 = 0.7264 | 996.7 | –
328.15 K, x1 = 1 | 988 | –
333.15 K, x1 = 0.032 | – | 62.46
333.15 K, x1 = 0.069 | – | 60.07
333.15 K, x1 = 0.112 | – | 59.39
333.15 K, x1 = 0.1122 | 992.3 | –
333.15 K, x1 = 0.164 | – | 57.29
333.15 K, x1 = 0.1643 | 996.1 | –
333.15 K, x1 = 0.2278 | 999 | –
333.15 K, x1 = 0.228 | – | 55.39
333.15 K, x1 = 0.3067 | 1000.7 | –
333.15 K, x1 = 0.307 | – | 53.61
333.15 K, x1 = 0.407 | – | 51.77
333.15 K, x1 = 0.541 | – | 49.62
333.15 K, x1 = 0.726 | – | 47
333.15 K, x1 = 1 | – | 44.63
